Holding throughout (assay type): cell-based
One experiment concerns NCI-H460. As to the kind of experiment: Cell viability (CellTiter-Blue, 72 h), NCI-H460 lung cancer cells. As to conditions: Homo sapiens. As to the method: (§1) The following cell lines were tested in this example: Lung Cancer (A549, NCI-H460); Pancreatic cancer (PANC1, Mia-Pa-Ca-2); Melanoma (WM115, A375); Ovarian cancer (OVCAR3, SKOV3); Gastric cancer (MKN45, HGC-27); Renal cancer (ACHN) and Bladder Cancer (RT112).
(§2) Each tumour cell line was maintained in vitro in RPMI 1640+10% heat inactivated FBS and 2 mM L-glutamine (growth media) at 37° C. in 5% CO2 and humidified conditions. The cells were harvested, washed, re-suspended into growth medium and counted. The cells were re-suspended into assay media (RPMI 1640+5% heat inactivated FBS+ and 2 mM L-glutamine) at 4×10^4 cells/ml (dependent upon cell type) and plated into the middle 240 wells of 384 well tissue culture plates (Corning CellBind, black-wall plates) 25 μl/well aliquots; 50 μl of growth media was aliquoted into the outer wells. There were 3 plates for each cell line.
(§3) The plates were incubated overnight at 37° C., in 5% humidified CO2.
(§4) The phytocannabinoid test compounds were prepared in 100% DMSO vehicle at a stock concentration of 20 and 40 mM.
(§5) Starting with the 20 mM stock in DMSO, this was serially diluted (2 fold) in DMSO in a 96-well plate, to 20 (no dilution), 10, 5, 2.5, 1.25, 0.625, 0.315, 0.157 and […]. Following this, 10 ul of each compound dilution was diluted into 990 ul of 1% (v/v) FBS media in a deep well block making the final concentrations of 200, 100, 50, 25, 12.5, 6.25, 3.125, 1.56 and 0.79 μM (2× final assay concentrations and 1% DMSO).
(§6) An equal volume of each cannabinoid in the combination (stock concentration 40 mM) was mixed together to make a stock of 20 mM of each cannabinoid in DMSO. This was serially diluted (2 fold) in DMSO in a 96-well plate, to 20 (no dilution), 10, 5, 2.5, 1.25, 0.625, 0.315, 0.157 and […]. Following this, 10 ul of each combination dilution was diluted into 990 ul of 1% (v/v) FBS media in a deep well block making the final concentrations of 200, 100, 50, 25, 12.5, 6.25, 3.125, 1.56 and 0.79 μM (2× final assay concentrations and 1% DMSO).
Taxotere SOC was prepared in 100% DMSO to give a stock concentration of 10 mM. This was diluted in DMSO from the stock solution to 200 μM, then serially diluted (3-fold) in DMSO to 200 (no dilution), 66.66, 22.22, 7.41, 2.47, 0.82, 0.27, 0.09, 0.03 μM. 10 ul of each of the taxotere dilutions was diluted in 990 ul of 1% (v/v) FBS media making the final concentrations of 2, 0.67, 0.22, 0.074, 0.0247, 0.0082, 0.0027 0.0009, 0.0003 μM (2× final assay concentrations and 1% DMSO).
(§7) The plates were incubated for 72 h at 37° C. in 5% humidified CO2. To develop the plates, at 72 h, 10 μl of CellTiter-Blue™ reagent was added to each test/blank well.
(§8) The plates were incubated at 37° C., 5% humidified CO2. Fluorescence was measured using a Flex II Station plate reader (570 nm excitation wavelength, 600 nm emission wavelength, 590 nm cut-off) after 3 h.
(§9) The phytocannabinoid compounds CBD, CBGA, CBG, CBDA, THCV and THC were tested on a panel of lung (A549, NCI-H460), pancreatic (PANC1, Mia-Pa-Ca-2), melanoma (WM115, A375), ovarian (OVCAR3, SKOV3), gastric (MKN45, HGC-27), renal (ACHN) and bladder (RT112) cancer cell lines according to the protocol for 72 h in media containing 1% FBS.
(§10) The IC50 values for each phytocannabinoid and combination of CBD with the other phytocannabinoids was calculated for each cell line. The raw data values expressed in relative fluorescent units were normalised to the vehicle for each individual plate and any reduction in fluorescence indicated a decrease in viability.
(§11) This calculation was as described in Example 1 above.

A further experiment relates to HGC-27. As to the kind of experiment: Cell viability (CellTiter-Blue, 72 h), HGC-27 gastric cancer cells. As to conditions: Homo sapiens. As to the method:
as §1, §2, §3, §4, §5, §6
Cisplatin (stock of 1 mg/ml=3.33 mM in water) was diluted in 1% FBS media to give a stock concentration of 1 mM. This was then diluted in 1% FBS media from the stock solution to 200 μM, then serially diluted (3-fold) in 1% FBS media to 200 (no dilution), 66.66, 22.22, 7.41, 2.47, 0.82, 0.27, 0.09, 0.03 μM (2× final assay concentrations; no DMSO).
as §7, §8, §9, §10, §11
(The colour change of resazurin is a common sign of viable cells or microbes.)

A further experiment concerns PANC-1. As to the kind of experiment: Cell viability (CellTiter-Blue, 72 h), PANC-1 pancreatic cancer cells. As to conditions: Homo sapiens, PANC-1, 1% FBS. As to the method:
as §1, §2, §3, §4, §5, §6
Gemcitabine SOC was prepared in 100% DMSO to give a stock concentration of 20 mM. This was then serially diluted (3 fold) in DMSO in a 96-well plate, to 20 (no dilution), 6.6, 2.2, 0.741, 0.247, 0.082, 0.027, 0.009 and 0.003 mM. Following this, 10 ul of each dilution was further diluted into 990 ul of 1% (v/v) FBS media making the final concentrations of 200 (no dilution), 66.66, 22.22, 7.41, 2.47, 0.82, 0.27, 0.09, 0.03 μM (2× final assay concentrations and 1% DMSO).
as §7, §8, §9, §10, §11

[1] abbreviates: NCI-H460, 72 h, read-out: Cell line IC50 value.
Setting [2] is: NCI-H460, read-out: Dm (median effect dose).
Setting [3] is: HGC-27, HGC27 cells, 1% FBS, read-out: Dm (potency, median effect).
The mark [4] stands for this setting: HGC-27, 1% FBS, 72 h, read-out: Cell line IC50 value.
[5] abbreviates: 72 h, read-out: Cell line IC50 value.
[6] abbreviates: read-out: Dm (median effect dose).

pIC50: −log10 of the molar value. Read-outs that look alike come from different tables or passages of the source.

On to `CCCCCc1cc(O)c(C/C=C(\C)CCC=C(C)C)c(O)c1` [CBG, Cannabigerol], for which the pIC50 was 5.40 with NCI-H460 (setting [1]); 5.40 in the experiment with NCI-H460 (setting [2]); 5.76 in the experiment on HGC-27 (setting [3]); 5.80 in the experiment on HGC-27 (setting [4]); 5.51 in the experiment with PANC-1 (setting [5]); 5.54 in the experiment with PANC-1 (setting [6]).

Turning to `C=C(C)[C@@H]1CCC(C)=C[C@H]1c1c(O)cc(CCCCC)c(C(=O)O)c1O` [CBDA, Cannabidiolic acid], the pIC50 in the experiment on NCI-H460 (setting [1]) is 5.14; in the experiment on NCI-H460 (setting [2]), 5.18; in the experiment with HGC-27 (setting [3]) it was 4.98; with HGC-27 (setting [4]), 5.89; with PANC-1 (setting [5]), 4.88; in the experiment on PANC-1 (setting [6]), 4.90.

`C=C(C)[C@@H]1CCC(C)=C[C@H]1c1c(O)cc(CCCCC)cc1O` [CBD, Cannabidiol]: the pIC50 in the experiment on NCI-H460 (setting [1]) was 5.60; with NCI-H460 (setting [2]), 5.59; with HGC-27 (setting [3]), 5.76; with HGC-27 (setting [4]), 5.82; in the experiment with PANC-1 (setting [5]), 5.52; in the experiment on PANC-1 (setting [6]) it was 5.53.

`CCCCCc1cc(O)c(C/C=C(\C)CCC=C(C)C)c(O)c1C(=O)O` [CBGA, Cannabigerolic acid]: the pIC50 in the experiment on NCI-H460 (setting [1]) is 5.21; in the experiment on NCI-H460 (setting [2]), 5.39; in the experiment with HGC-27 (setting [3]), 5.26; with HGC-27 (setting [4]), 5.11; in the experiment with PANC-1 (setting [5]), 5.07; in the experiment with PANC-1 (setting [6]) it was 5.05.

With `CC(=O)O[C@@]12CO[C@@H]1C[C@H](O)[C@@]1(C)C(=O)[C@H](O)C3=C(C)[C@@H](OC(=O)[C@H](O)[C@@H](NC(=O)OC(C)(C)C)c4ccccc4)C[C@@](O)([C@@H](OC(=O)c4ccccc4)[C@H]21)C3(C)C` [Taxotere, Docetaxel, reference compound], the pIC50 in the experiment on NCI-H460 (setting [1]) is 8.96.

With `CCCc1cc(O)c2c(c1)OC(C)(C)[C@@H]1CCC(C)=C[C@@H]21` [THCV, Tetrahydrocannabivarin], the pIC50 is 5.34 in the experiment on NCI-H460 (setting [1]); 5.34 in the experiment with NCI-H460 (setting [2]); 5.51 in the experiment on HGC-27 (setting [3]); 5.39 in the experiment with HGC-27 (setting [4]); 5.19 in the experiment on PANC-1 (setting [5]); 5.19 in the experiment on PANC-1 (setting [6]).

`CCCCCc1cc(O)c2c(c1)OC(C)(C)[C@@H]1CCC(C)=C[C@@H]21` [THC, Tetrahydrocannabinol, reference compound]: the pIC50 in the experiment with NCI-H460 (setting [1]) was 5.42; in the experiment on NCI-H460 (setting [2]), 5.48; in the experiment on HGC-27 (setting [3]), 5.56; with HGC-27 (setting [4]), 5.55; with PANC-1 (setting [5]), 5.52; with PANC-1 (setting [6]), 5.50.

The values are drawn from patent US9962341B2, “Active pharmaceutical ingredient (API) comprising cannabinoids for use in the treatment of cancer” (GW Pharma Limited, priority 2014, dated 2018).
